# Data taken from ChEMBL document CHEMBL1201862, “PubChem BioAssay data set” (2004).
# The source made the active and inactive calls.
# Columns and labels:
# [1] = biological target: SWI/SNF-related matrix-associated actin-dependent regulator of chromatin subfamily A member 2 (Homo sapiens, UniProt P51531); test: Luminescence-based cell-based high throughput dose response assay to identify activators of the function of SWI/SNF related, matrix associated, actin dependent regulator of chromatin, subfamily a, member 2 (SMARCA2, BRM).; type: functional
# Sequence of SWI/SNF-related matrix-associated actin-dependent regulator of chromatin subfamily A member 2 (P51531 whole entry): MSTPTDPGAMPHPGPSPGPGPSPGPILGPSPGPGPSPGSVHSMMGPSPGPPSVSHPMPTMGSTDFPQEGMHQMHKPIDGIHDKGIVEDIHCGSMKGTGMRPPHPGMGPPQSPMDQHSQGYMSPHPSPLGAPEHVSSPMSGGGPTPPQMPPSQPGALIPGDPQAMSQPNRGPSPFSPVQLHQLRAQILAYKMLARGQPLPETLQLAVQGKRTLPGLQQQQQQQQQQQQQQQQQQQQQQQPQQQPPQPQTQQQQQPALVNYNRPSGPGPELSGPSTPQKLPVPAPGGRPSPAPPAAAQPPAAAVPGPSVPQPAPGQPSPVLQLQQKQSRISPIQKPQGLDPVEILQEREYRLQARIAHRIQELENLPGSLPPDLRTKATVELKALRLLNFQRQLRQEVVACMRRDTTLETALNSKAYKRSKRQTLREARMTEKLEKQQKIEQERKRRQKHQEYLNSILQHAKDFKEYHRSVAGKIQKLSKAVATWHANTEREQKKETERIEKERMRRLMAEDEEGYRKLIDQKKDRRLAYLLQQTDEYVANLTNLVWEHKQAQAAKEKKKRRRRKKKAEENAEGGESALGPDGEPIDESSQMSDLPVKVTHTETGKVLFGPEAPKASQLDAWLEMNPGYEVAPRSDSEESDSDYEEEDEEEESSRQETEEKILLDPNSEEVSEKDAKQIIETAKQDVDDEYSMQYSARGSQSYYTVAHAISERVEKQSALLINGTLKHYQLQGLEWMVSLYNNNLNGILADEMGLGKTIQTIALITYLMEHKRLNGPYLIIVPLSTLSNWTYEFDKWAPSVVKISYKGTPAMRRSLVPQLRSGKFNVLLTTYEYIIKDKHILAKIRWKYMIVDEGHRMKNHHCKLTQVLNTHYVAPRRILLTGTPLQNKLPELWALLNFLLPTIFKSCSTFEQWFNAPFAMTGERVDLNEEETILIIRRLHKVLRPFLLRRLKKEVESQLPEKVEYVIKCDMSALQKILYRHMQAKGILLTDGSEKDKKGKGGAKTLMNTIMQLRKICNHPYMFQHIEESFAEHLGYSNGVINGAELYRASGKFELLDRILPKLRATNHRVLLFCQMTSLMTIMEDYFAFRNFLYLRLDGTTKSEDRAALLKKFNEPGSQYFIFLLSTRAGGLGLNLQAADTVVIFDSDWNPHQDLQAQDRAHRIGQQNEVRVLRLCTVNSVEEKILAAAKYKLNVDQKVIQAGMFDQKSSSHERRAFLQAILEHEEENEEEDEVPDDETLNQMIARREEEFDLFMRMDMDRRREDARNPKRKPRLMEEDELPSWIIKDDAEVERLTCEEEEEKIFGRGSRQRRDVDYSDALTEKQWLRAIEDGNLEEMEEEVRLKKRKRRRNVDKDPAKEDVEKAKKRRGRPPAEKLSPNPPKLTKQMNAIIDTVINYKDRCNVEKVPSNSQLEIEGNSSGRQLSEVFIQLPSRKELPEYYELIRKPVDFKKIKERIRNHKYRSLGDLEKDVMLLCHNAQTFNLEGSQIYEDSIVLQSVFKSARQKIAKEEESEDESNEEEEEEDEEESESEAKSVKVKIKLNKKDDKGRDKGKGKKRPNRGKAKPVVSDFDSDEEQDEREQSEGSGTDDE
# [2] = Counterscreen for activators of the function of SWI/SNF related, matrix associated, actin dependent regulator of chromatin, subfamily a, member 2 (SMARCA2, BRM): Luminescence-based cell-based high throughput dose response assay to identify non-selective compounds using the VP16 reporter assay.; type: functional
# [3] = biological target: T1, Nuclear receptor subfamily 0 group B member 1 (Homo sapiens, UniProt P51843); type: functional, cell-based;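 also: HEK293T cells transfected with SF-1 and DAX-1 plus StAR promoter luciferase reporter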
# T1 sequence (P51843 whole entry): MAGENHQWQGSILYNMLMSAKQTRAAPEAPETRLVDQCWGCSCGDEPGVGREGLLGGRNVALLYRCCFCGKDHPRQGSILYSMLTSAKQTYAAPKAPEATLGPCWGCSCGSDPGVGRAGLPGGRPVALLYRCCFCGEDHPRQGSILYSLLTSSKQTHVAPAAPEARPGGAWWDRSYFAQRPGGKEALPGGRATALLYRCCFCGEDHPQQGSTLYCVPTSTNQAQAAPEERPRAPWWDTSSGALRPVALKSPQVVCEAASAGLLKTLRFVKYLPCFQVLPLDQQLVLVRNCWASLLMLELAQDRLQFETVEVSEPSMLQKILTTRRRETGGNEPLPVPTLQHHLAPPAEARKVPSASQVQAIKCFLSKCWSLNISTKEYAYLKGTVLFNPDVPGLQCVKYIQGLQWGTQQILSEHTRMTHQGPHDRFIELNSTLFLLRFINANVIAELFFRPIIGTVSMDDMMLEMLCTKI
# [4] = Luminescence Cell-Based Dose Response HTS to Identify Inhibitors of 5'UTR Stem-Loop Driven Prion Protein mRNA Translation in H4 Neuroglioblastoma Cells. [Related pubchem assays: 1827 (Project Summary), 1813 (Primary HTS)]; type: functional
# [5] = inhibitors of firefly luciferase expression or activity, dose response, H4 neuroglioma cells, luminescence (AID 1990); type: functional, cell-based
# cells [6] = type: functional, cell-based
# [7] = inhibitors of SNCA 5'UTR-driven reporter translation, confirmation, H4 neuroglioma cells, luminescence (AID 1988); type: functional, cell-based
# HEK293 = test: inhibitors of LMP1-driven NF-kB reporter, dose response, cell-based, HEK293, luciferase, cherry-pick (AID 588343); type: functional; settings: Homo sapiens
# [8] = biological target: T2, Adenosylmethionine-8-amino-7-oxononanoate aminotransferase (Mycobacterium tuberculosis, UniProt P9WQ81); test: Mycobacterium tuberculosis BioA enzyme inhibitor Measured in Biochemical System Using Plate Reader - 2163-02_Inhibitor_Dose_CherryPick_Activity.; type: functional, Mycobacterium tuberculosis UT205
# T2 sequence (P9WQ81 whole entry): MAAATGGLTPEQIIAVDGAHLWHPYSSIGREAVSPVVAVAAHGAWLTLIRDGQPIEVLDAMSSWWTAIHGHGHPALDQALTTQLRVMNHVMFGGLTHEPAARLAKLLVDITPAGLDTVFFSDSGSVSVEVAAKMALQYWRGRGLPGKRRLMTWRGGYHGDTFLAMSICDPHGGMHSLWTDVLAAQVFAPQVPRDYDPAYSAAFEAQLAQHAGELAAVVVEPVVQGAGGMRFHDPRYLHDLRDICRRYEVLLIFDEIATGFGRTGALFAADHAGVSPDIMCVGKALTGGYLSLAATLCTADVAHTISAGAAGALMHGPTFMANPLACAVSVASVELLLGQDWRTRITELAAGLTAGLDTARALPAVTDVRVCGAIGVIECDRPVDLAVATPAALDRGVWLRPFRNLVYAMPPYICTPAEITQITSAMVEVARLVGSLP
# cells [9] = type: functional, cell-based; remark: listed apart in the source
# cells [10] = type: functional, cell-based; remark: listed apart in the source
# [11] = biological target: T3, Heat shock factor protein 1 (Mus musculus, UniProt P38532); test: inhibition of MG132-induced HSE-luciferase signal, confirmation, cell-based, NIH3T3, luminescence, dose retest (AID 2382); type: functional;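 also: NIH3T3 fibroblasts with HSF1-driven luciferase reporter stressed by proteasome inhibitor MG132; luminescence from HSF1-driven luciferase expression after 8 hours of MG132 stress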
# T3 sequence (P38532 whole entry): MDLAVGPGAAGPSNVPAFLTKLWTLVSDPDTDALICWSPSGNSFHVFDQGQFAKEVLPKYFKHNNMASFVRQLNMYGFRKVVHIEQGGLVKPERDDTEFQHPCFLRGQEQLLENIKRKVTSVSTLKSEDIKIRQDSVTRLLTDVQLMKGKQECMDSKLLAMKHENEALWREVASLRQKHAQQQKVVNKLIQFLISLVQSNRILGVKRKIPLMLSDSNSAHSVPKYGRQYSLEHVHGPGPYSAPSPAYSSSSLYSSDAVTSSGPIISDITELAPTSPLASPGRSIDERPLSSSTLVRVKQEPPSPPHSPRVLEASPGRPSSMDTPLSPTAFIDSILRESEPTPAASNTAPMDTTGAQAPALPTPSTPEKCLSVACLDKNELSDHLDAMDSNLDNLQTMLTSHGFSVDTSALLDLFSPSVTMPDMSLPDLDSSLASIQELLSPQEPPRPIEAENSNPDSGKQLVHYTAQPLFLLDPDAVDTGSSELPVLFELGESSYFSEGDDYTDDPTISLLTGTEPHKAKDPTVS
# cells [12] = type: functional, cell-based; remark: listed apart in the source
# cells [13] = type: functional, cell-based; remark: listed apart in the source
# [14] = inhibitors of clade B AD8 Env fusion, dose response, cell-based, cherry-pick (AID 652062); type: functional;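 also: luciferase signal from cell-cell fusion driven by HIV-1 clade B AD8 Env; potency is for inhibitors of fusion seen as a drop in luminescence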
# [15] = CEM21 lymphoblast cell cytotoxicity, dose response, cytotoxicity control for viral fusion inhibitor project, CellTiter-Glo luminescence, cherry-picked (AID 652042); type: functional, cell-based;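 also: potency for signal decrease meaning cytotoxicity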
# [16] = ZM109 Env clade C HIV-1 fusion inhibitors, dose response, HeLa effector, CEM target cells, luciferase, cherry-pick (AID 652058); type: functional, cell-based
# [17] = inhibitors of HIV Env-driven cell fusion, dose response, cherry-pick (AID 652057); type: functional, cell-based
# [18] = ADAM10 protease inhibitors, dose response, selectivity assay for ADAM17 exosite inhibitor project, biochemical, FRET peptide substrate, recombinant human ADAM10 (AID 743259);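 also: ADAM10 enzyme cleaving a FRET peptide substrate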
# Protein RecA = biological target: T4, Protein RecA (Mycobacterium tuberculosis, UniProt P9WHJ3); test: Fluorescence Cell-Free Homogeneous Dose Retest to Identify Inhibitors of RecA-Intein Splicing Activity. [Related pubchem assays (depositor defined):AID2097, AID2223, AID489010, AID492950]; type: functional
# T4 sequence (P9WHJ3 whole entry): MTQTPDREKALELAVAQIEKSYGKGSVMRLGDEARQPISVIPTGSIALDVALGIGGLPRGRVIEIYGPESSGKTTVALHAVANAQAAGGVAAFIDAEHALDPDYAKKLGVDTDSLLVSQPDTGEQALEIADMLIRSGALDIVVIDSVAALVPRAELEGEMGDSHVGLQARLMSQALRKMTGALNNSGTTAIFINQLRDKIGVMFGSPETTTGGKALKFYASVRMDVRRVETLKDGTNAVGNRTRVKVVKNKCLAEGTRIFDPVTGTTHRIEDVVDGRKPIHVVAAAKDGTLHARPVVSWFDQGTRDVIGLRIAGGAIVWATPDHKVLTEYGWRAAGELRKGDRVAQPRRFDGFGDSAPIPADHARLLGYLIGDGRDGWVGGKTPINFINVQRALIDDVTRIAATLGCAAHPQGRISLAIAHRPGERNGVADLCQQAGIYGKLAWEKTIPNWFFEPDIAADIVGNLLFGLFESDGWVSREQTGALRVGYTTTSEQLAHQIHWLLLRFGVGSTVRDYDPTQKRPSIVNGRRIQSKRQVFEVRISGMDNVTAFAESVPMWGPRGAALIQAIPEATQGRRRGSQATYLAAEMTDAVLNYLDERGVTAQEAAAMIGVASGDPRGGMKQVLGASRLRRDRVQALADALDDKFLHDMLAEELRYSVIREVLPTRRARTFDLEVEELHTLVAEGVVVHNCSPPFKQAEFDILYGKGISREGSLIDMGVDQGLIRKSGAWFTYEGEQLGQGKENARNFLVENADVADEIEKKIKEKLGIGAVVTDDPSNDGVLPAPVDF
# [19] = biological target: T5, Mannose-6-phosphate isomerase (Homo sapiens, UniProt P34949); test: human PMI inhibitors, high substrate, primary screen, biochemical, fluorescence intensity, high mannose 6-phosphate (AID 1220)
# T5 sequence (P34949 whole entry): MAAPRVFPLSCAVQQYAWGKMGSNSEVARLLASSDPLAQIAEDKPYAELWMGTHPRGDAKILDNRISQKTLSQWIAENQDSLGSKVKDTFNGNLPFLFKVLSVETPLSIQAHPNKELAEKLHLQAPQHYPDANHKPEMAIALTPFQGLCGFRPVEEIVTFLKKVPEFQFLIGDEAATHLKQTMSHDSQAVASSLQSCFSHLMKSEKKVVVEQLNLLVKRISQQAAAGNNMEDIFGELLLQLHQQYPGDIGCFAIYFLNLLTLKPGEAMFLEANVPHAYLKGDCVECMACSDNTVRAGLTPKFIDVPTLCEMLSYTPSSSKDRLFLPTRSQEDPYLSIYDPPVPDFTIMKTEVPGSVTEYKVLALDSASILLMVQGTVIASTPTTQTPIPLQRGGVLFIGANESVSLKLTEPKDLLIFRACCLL
# cells [20] = type: functional
# [21] = biological target: T6, Replicative DNA helicase DnaB (Mycobacterium tuberculosis, UniProt P9WMR3); test: DnaB intein splicing inhibitors, dose response, biochemical, cell-free fluorescence (AID 449749); type: functional
# T6 sequence (P9WMR3 whole entry): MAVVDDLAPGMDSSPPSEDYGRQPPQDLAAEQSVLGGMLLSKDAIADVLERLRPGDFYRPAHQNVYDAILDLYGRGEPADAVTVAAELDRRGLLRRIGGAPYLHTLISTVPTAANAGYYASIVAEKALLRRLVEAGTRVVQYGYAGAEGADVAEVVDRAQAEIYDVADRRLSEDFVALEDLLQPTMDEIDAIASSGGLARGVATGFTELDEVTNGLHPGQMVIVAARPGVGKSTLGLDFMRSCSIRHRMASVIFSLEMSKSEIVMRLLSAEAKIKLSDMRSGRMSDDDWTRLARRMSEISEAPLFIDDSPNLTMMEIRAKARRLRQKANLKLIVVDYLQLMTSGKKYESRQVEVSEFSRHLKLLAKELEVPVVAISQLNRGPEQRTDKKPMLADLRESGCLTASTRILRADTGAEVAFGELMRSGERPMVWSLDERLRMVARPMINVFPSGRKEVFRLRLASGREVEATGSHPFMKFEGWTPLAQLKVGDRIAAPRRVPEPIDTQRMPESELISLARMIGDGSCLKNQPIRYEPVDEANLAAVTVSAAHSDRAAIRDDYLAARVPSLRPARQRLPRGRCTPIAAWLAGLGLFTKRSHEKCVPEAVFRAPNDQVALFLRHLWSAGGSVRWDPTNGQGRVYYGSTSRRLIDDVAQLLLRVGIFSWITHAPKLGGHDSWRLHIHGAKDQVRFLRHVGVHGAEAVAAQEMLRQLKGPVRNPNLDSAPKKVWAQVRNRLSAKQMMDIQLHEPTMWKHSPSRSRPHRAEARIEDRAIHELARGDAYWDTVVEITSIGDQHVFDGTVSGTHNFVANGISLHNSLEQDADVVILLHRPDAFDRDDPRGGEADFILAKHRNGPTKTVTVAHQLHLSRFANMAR
# [22] = Vero E6 cell cytotoxicity, dose response, cytotoxicity control for non-replicating M. tuberculosis project, secondary assay (AID 492998); type: functional, VeroE6; settings: Vero C1008
structure (smiles),measurement,setting,value
C=COC(=O)c1sc2nc(C)cc(C)c2c1N,EC50,[1],> 91.1 µM (inactive)
same,EC50,[2],> 91.1 µM (inactive)
Cc1c(C(=O)OCC(C)C)[nH]c2c1C(=O)CC(c1ccco1)C2 (configuration not stated),IC50,[3],> 67.5 µM (inactive)
same,EC50,[4],1.5 µM (active)
same,EC50,[5],1.95 µM (active)
same,IC50,cells [6],> 67.5 µM (inactive)
same,EC50,[7],0.212 µM (active)
CC(C)Oc1ccc(C(=O)Nc2nnc(SCC(=O)N3CCOCC3)s2)cc1,IC50,[3],> 67.5 µM (inactive)
same,IC50,cells [6],> 67.5 µM (inactive)
same,AC50,HEK293,0.897 µM (active)
CCN(CC)c1ccc2cc(C(=O)c3cccs3)c(=O)oc2c1,EC50,[1],> 91 µM (inactive)
same,AC50,[8],0.195 µM (active)
same,EC50,[2],> 91 µM (inactive)
COc1ccc(C2NC(S)=NC3=C2CCCC3=C2SCCS2)cc1 (configuration not stated),IC50,[3],7.9 µM (active)
same,EC50,cells [9],> 350 µM (not active)
same,IC50,cells [6],> 67.5 µM (inactive)
same,EC50,cells [10],10.6 µM (active)
same,EC50,[11],> 195 µM (not active)
c1ccc(CCN2CN(CCCN3CCOCC3)c3nc4ccccc4n3C2)cc1,IC50,cells [12],> 29.9 µM (inactive)
same,EC50,cells [13],> 29.9 µM (inactive)
O=C(C[C@H]1C=C[C@@H](NC(=O)c2cccc(F)c2)[C@@H](CO)O1)NCc1ccc(Oc2ccccc2)cc1,AC50,[14],2.83 µM (active)
same,AC50,[15],46.3 µM (active)
same,AC50,[16],0.725 µM (active)
same,AC50,[17],0.988 µM (active)
C[C@H](NC(=O)c1[nH]cnc1C(=O)NC(c1ccccc1)c1ccccc1)C(=O)OCc1ccccc1,IC50,[18],> 69.5 µM (inactive)
CCOC(=O)C(Nc1ccc2ccccc2c1)C(=O)OCC,EC50,[1],> 91.2 µM (inactive)
same,EC50,Protein RecA,13 µM (active)
same,IC50,[19],> 50 µM (not active)
same,IC50,cells [20],4.41 µM (active)
same,AC50,[21],5.7 µM (active)
same,CC50,[22],> 20 µM (active)
same,EC50,[2],> 91.2 µM (inactive)
